{
  "source": "patent US20250122193A1",
  "about": "“NOVEL PYRIDOCARBAZOLIUM COMPOUNDS AND MEDICAL USES THEREOF” (MyCural Therapeutics, priority 2021, published 2025)",
  "key": {"in vivo": {"assay": "in vivo", "details": "mouse, plasma, ip, 6.25 mg/kg", "protocol": "Blood and brains were collected from three to four mice per group at 0, 1, 2, 4 and 24 hours following injection of 6.25 mg/kg ToM. Plasma samples were extracted using protein precipitation. Brain samples were extracted by homogenization in acetonitrile:DMSO, 95:5 using a gentleMACS Dissociater and gentleMACS™ M Tubes. The protein in the mouse plasma samples was removed by protein precipitation with acetonitrile containing the internal standard. After protein precipitation the study samples were centrifuged, and the resulting supernatant was analyzed. The acetonitrile:DMSO from the brain sample homogenates were spiked with the internal standard and then analyzed. All samples were analyzed by first separating them by reversed phase gradient LC and subsequently detecting them using positive electrospray ionization and multiple reaction monitoring (MRM).\nFirst, we performed a pharmacokinetic study of the behavior of the molecule in mice."}, "[1]": {"system": "primary patient derived AML cell cultures and established AML/CML cell lines", "assay": "primary AML cells and AML/CML cell lines, WST-1 assay", "protocol": "C) Primary AML cells from patient biopsies where cultured for 72 hours in presence of MYCMI-7 at indicated doses cell growth was monitored by the WST-1 assay. One representative biological experiment out of at three, performed in triplicates is shown.\nCell growth and viability assays: Cell growth and viability was estimated in triplicates with WST-1 (Roche) or Resazurin sodium salt (Sigma-Aldrich) assays in medium at 37° C. and 5% CO2 for 2 hours after which absorbance or fluorescence, respectively, was measured with an Omega Fluostar (BMG Labtech) in a 96 well plate format. Cell viability by the Cyt60 assay was carried out as in manufacturers' protocol."}, "MDA-MB-231": {"system": "MDA-MB-231", "assay": "MDA-MB-231 cells in cell culture", "format": "cell-based", "details": "Homo sapiens", "experimental": "We next studied the effects of MYCMI-7 in a xenograft model of the human basal-like breast cancer cell line MDA-MB-231. The cells were highly sensitive to MYCMI-7 treatment in cell culture (data not shown), with a GI50 around 1 μM."}, "[2]": {"system": "association of MYC with the ODC1 gene promoter", "assay": "chromatin immunoprecipitation (ChIP) of MYC at ODC1 promoter", "format": "cell-based", "details": "5 μM", "experimental": "FIG. 1: MYCMI-7 (Compound Example 1) inhibits the MYC:MAX interaction in cells, bind MYC in vitro, and blocks MYC function. A) Molecular structure of MYCMI-7. B-E) split Gaussia luciferase (GLuc) assay. MYC or MYCN and MAX Gluc constructs were co-transfected into HeLa cells together with a firefly luciferase vector. 24 hours post transfection cells were treated with compounds, and after another 17-24 hours cells were harvested and both GLuc and firefly luciferase activities were measured. The mean of three different experiments is shown. Treatment with: B) 5 μM of MYCMI-7, 64 μM 10058-F4 or 5 μM JQ1, respectively, C) 6.5 μM MYCMI-7 on cells expressing MYC:MAX GLuc vs. GCN4:GCN4 GLuc, D) 5 μM MYCMI-7 and 5 μM ellipticine. E) 5 μM MYCMI-7 for various time points. F) in situ proximity ligation assay (isPLA). […] MYC:GAL4 was used as negative control in the isPLA assay. G) Quantification of isPLA dots. (H) Co-immunoprecipitation (co-IP) of endogenous MYC and MAX proteins from MCF7 cells after treatment with 5 μM MYCMI-7 at various times. IP=immunoprecipitation; W=western blot. I) Chromatin immunoprecipitation (ChIP) of MYC at the ODC1 target gene promoter after treatment of cells with 5 μM MYCMI-7 for 6 hours. J) MYC target gene ODC1 expression after treatment with 5 μM MYCMI-7, quantified by qPCR. K) ChIP of MYC at the ODC promoter in MCF7 cells after 5 μM MYCMI-7 treatment for indicated time points. L) Recombinant MYC bHLHZip protein domain immobilized onto a CM5 chip was subjected to various concentrations of MYCMI-7 and the complex of MYCbHLHZip-MYCMI-7 was measured as response units by SPR. The sensogram was produced by subtracting the blank response.\nFor western blot equal amounts of proteins ([…]) were separated on a 4-12% SDS-PAGE gel. Proteins were transferred to Immobilion-P membrane (Millipore) and detected by immunostaining and chemoluminescence (Immobilion western HRP substrate; Millipore). For immunoprecipitations 500-1000 μg of protein was used. […] Briefly, cells were crosslinked with 1% formaldehyde on ice for 6 minutes. […]"}, "[3]": {"system": "Purified AML cells from spleens of moribund mice", "assay": "purified MYC/BCL-XL AML cells in culture", "details": "Mus musculus"}, "HCT116-TIR-AID cells": {"system": "HCT116-TIR-AID cells", "assay": "auxin-induced TOP2A depletion in HCT116 cells", "format": "cell-based"}, "[4]": {"system": "normal rat embryo fibroblasts (REFs)", "assay": "cell cycle distribution by flow cytometry, normal REFs", "format": "cell-based", "details": "5 μM", "experimental": "FIG. 4: MYCMI-7 induces apoptosis in malignant cells and growth arrest in normal cells. A) Cell cycle distribution analysis by flow cytometry of MYC-regulated P493-6 cells and normal rat embryo fibroblasts (REFs). Left panel, P493-6 synchronized in G0 by 24 hours treatment of […] doxycycline. Doxycycline was removed and the cells were harvested 48 hours after the addition of fresh medium containing DMSO or 5 μM MYCMI-7. Right panel, flow cytometry analysis of normal REFs treated with DMSO or 5 μM MYCMI-7. B) Apoptosis assay using the Cell Death Detection ELISA^plus kit. Left panel, immortalized Rat1 fibroblasts with different MYC status after 24 hours of 5 μM MYCMI-7 treatment, middle panel and right panels, normal REFs and normal peripheral blood lymphocytes, respectively, after 24 and 48 hours of 5 μM MYCMI-7 treatment. […] Viability was measured by trypan blue exclusion assay. F) Cell growth measured with Cyt62 assay of primary normal human epidermal melanocytes (NHEM) treated for 72 hours with MYCMI-7, G) Viability measured by trypan blue exclusion assay of NHEM after treatment for 72 hours with MYCMI-7.\nFlow cytometry: P493-6 cells were synchronized using 1 μg/ml doxycycline. […] Cells were stained with propidium iodide (Sigma) and 1×10^4 cells per treatment were analyzed using a FACScan and CellQuestPro (Becton Dickinson). […]"}, "[5]": {"system": "HO15.19 (MYC-/-) Rat1 fibroblasts", "assay": "WST-1 growth/viability assay, MYC null Rat1 fibroblasts", "protocol": "A) Immortalized Rat1 fibroblasts with different MYC status; TGR1 (wt MYC), HO15.19 (MYC−/−) and HOMyc3 (HO15.19 with reconstituted MYC) were treated with indicated concentrations of MYCMI-7 for 48 hours. Cell proliferation/viability/metabolic activity was measured using the WST-1 assay. […] “Responsive” and “less responsive”; cell lines with positive and negative log 10 GI50 values, respectively. […] For the WST-1 assays the average of three different experiments performed in triplicates is shown.\nCell growth and viability assays: Cell growth and viability was estimated in triplicates with WST-1 (Roche) or Resazurin sodium salt (Sigma-Aldrich) assays in medium at 37° C. and 5% CO2 for 2 hours after which absorbance or fluorescence, respectively, was measured with an Omega Fluostar (BMG Labtech) in a 96 well plate format."}},
  "data": [
    {"smiles": "CCN(CC)CC[n+]1ccc2c(C)c3[nH]c4ccccc4c3c(C)c2c1", "note": "[MYCMI-7, 2-(5,11-Dimethyl-6H-25-pyrido[4,3-b]carbazol-2-yl)-N,N-diethylethanamine bromide]", "values": [
      {"measurement": "half-life", "setting": "in vivo", "value": 1.5, "unit": "h"},
      {"measurement": "efficiency compared with 10058-F4, JQ1 and cisplatin", "setting": "[1]", "value": "more efficient"},
      {"measurement": "GI50", "setting": "[1]; Homo sapiens", "value": "150 to 1300", "unit": "nM"},
      {"measurement": "GI50", "setting": "MDA-MB-231", "value": "~1000", "unit": "nM"},
      {"measurement": "time after which reduction of MYC association with ODC1 promoter starts", "setting": "[2]", "value": 2, "unit": "h"},
      {"measurement": "time from which MYC association with ODC1 promoter reaches a minimal level", "setting": "[2]", "value": 4, "unit": "h"},
      {"measurement": "association of MYC with the ODC1 gene promoter (ChIP)", "setting": "[2]; breast cancer cells", "value": "reduced"},
      {"measurement": "GI50", "setting": "[3]", "value": "< 1000", "unit": "nM"},
      {"measurement": "effect of TOP2A depletion on sensitivity to MYCMI-7 (resazurin assay)", "setting": "HCT116-TIR-AID cells; auxin-induced depletion", "value": "does not affect"},
      {"measurement": "effect of TOP2A depletion on MYCMI-7-induced inhibition of MYC:MAX interactions (isPLA)", "setting": "HCT116-TIR-AID cells; pre-treatment with auxin", "value": "no effect"},
      {"measurement": "cell cycle effect", "setting": "[4]", "value": "induced G1 arrest"},
      {"measurement": "cell death", "setting": "[4]", "value": "no increase in cell death"},
      {"measurement": "concentration above which viability of HO15.19 cells started to go down (off target effects)", "setting": "[5]", "value": "higher than 10 μM"},
      {"measurement": "proliferation/viability of MYC null cells", "setting": "[5]; concentrations of 10 μM, WST-1", "value": "unaffected"}
    ]}
  ]
}
